In ChEMBL document CHEMBL3425444, “Discovery of piperidin-4-yl-aminopyrimidine derivatives as potent non-nucleoside HIV-1 reverse transcriptase inhibitors” (Eur J Med Chem, 2015):

Key:
[1] = test system: Human immunodeficiency virus 1; experiment: Antiviral activity against wild type HIV1 3B infected in human MT4 cells assessed as protection from virus-induced cytopathicity after 4 days by MTT assay; type: functional, organism-based; details: Human immunodeficiency virus 1, 3B, MT4, 96 h
[2] = Cytotoxicity against human MT4 cells assessed as reduction of cell viability after 4 days by MTT assay; type: cell-based
[3] = test system: Human immunodeficiency virus 2; experiment: Antiviral activity against HIV-2 ROD infected in human MT4 cells assessed as protection from virus-induced cytopathicity after 4 days by MTT assay; type: functional, organism-based; details: Human immunodeficiency virus 2, ISOLATE ROD, MT4, 96 h
[4] = test system: Human immunodeficiency virus 1; experiment: Antiviral activity against HIV-1 RES056 harboring reverse transcriptase K103N/Y181C double mutant infected in human MT4 cells assessed as protection from virus-induced cytopathicity after 4 days by MTT assay; type: functional, organism-based; details: Human immunodeficiency virus 1, RES056, MT4, 96 h
[5] = Retention time of the compound by HPLC analysis; type: physicochemical
[6] = Selectivity index, ratio of CC50 for human MT4 cells to EC50 for HIV1 3B infected in human MT4 cells; type: toxicity, cell-based; details: HIV1 3B infected MT4 cells, read-out: Selectivity Index
[7] = molecular target: Human immunodeficiency virus type 1 reverse transcriptase (Human immunodeficiency virus 1, UniProt Q72547); experiment: Inhibition of HIV1 recombinant wild type reverse transcriptase p66/p51 assessed as reduction in biotin-labeled dUTP incorporation into DNA using polyr(A) x oligo(dT)16 template/primer hybrid

| SMILES | EC50 [1] [nM] | CC50 at 96 h [2] [nM] | EC50 [3] [nM] | EC50 [4] [nM] | Retention_time [5] [min] | selectivity ratio [6] | IC50 [7] [nM] |
| --- | --- | --- | --- | --- | --- | --- | --- |
| O=C1Nc2ccc(Cl)cc2[C@@](C#CC2CC2)(C(F)(F)F)O1 [EFAVIRENZ] | 6.3 | > 6340 | – | – | – | – | – |
| Cc1cc(C)cc(NC(=O)CN2CCC(Nc3nccc(Oc4c(C)cc(C#N)cc4C)n3)CC2)c1 | 14.9 | 2310 | > 2310 | > 2310 | 12.18 | 155 | – |
| Cc1cc(C#N)cc(C)c1Oc1ccnc(NC2CCN(CC(=O)Nc3ccc(F)cc3)CC2)n1 | 4.2 | 1810 | > 1810 | > 1810 | 10.85 | 431 | 204 |
| Cc1cc(C#N)cc(C)c1Oc1ccnc(NC2CCN(CC(=O)Nc3ccc(Cl)c(Cl)c3)CC2)n1 | 20.9 | 1280 | > 1280 | > 1280 | 12.62 | 61 | – |
| Cc1cc(C#N)cc(C)c1Oc1ccnc(NC2CCN(CC(=O)Nc3cccc(F)c3)CC2)n1 | 6.1 | 1410 | > 1410 | > 1410 | 11.41 | 231 | – |
| Cc1cc(C#N)cc(C)c1Oc1ccnc(NC2CCN(CC(=O)Nc3ccc(Cl)cc3Cl)CC2)n1 | 118 | 1750 | > 1750 | > 1750 | 13.21 | 15 | – |
| Cc1cc(C#N)cc(C)c1Oc1ccnc(NC2CCN(CC(=O)Nc3ccc(Br)cc3)CC2)n1 | 6.2 | 1480 | > 1480 | > 1480 | 11.85 | 238 | – |
| Cc1cc(C#N)cc(C)c1Oc1ccnc(NC2CCN(CC(=O)Nc3ccccc3[N+](=O)[O-])CC2)n1 | 41.9 | 59300 | > 59300 | > 59300 | 11.75 | 1420 | 193 |
| Cc1cc(C#N)cc(C)c1Oc1ccnc(NC2CCN(CC(=O)Nc3ccc(O)cc3)CC2)n1 | 2.1 | 2180 | > 2180 | > 2180 | 10.25 | 1040 | 102 |
| Cc1ccc(NC(=O)CN2CCC(Nc3nccc(Oc4c(C)cc(C#N)cc4C)n3)CC2)cc1C | 8.5 | 1510 | > 1510 | > 1510 | 12.21 | 177 | – |
| Cc1cc(C#N)cc(C)c1Oc1ccnc(NC2CCN(CC(=O)Nc3ccccc3)CC2)n1 | 3.3 | 1820 | > 1820 | > 1820 | 10.9 | 551 | 199 |
| Cc1cc(C#N)cc(C)c1Oc1ccnc(NC2CCN(CC(=O)Nc3ccccc3Cl)CC2)n1 | 34.6 | 1510 | > 1510 | > 1510 | 12.14 | 44 | – |
| Cc1ccc(NC(=O)CN2CCC(Nc3nccc(Oc4c(C)cc(C#N)cc4C)n3)CC2)cc1 | 5.5 | 2020 | > 2020 | > 2020 | 11.29 | 367 | 181 |
| Cc1cc(C#N)cc(C)c1Oc1ccnc(NC2CCN(CC(=O)Nc3ccccc3F)CC2)n1 | 7 | 119000 | > 119000 | > 119000 | 11.43 | 16900 | 207 |
| Cc1cc(C#N)cc(C)c1Oc1ccnc(NC2CCN(CC(=O)Nc3ccc(Cl)cc3)CC2)n1 | 6.1 | 998 | > 998 | > 998 | 11.62 | 164 | – |
| Cc1cc(C#N)cc(C)c1Oc1ccnc(NC2CCN(CC(=O)Nc3cccc(Cl)c3)CC2)n1 | 5.9 | 1260 | > 1260 | > 1260 | 11.95 | 214 | – |
| Cc1cc(C#N)cc(C)c1Oc1ccnc(NC2CCN(CC(=O)Nc3ccc(S(N)(=O)=O)cc3)CC2)n1 | 1.9 | 1610 | > 1610 | > 1610 | 9.11 | 845 | 116 |
| CC(C)Nc1cccnc1N1CCN(C(=O)c2cc3cc(NS(C)(=O)=O)ccc3[nH]2)CC1 [DELAVIRDINE] | – | > 43800 | – | > 43800 | – | > 67 | – |
| Cc1cccc(NC(=O)CN2CCC(Nc3nccc(Oc4c(C)cc(C#N)cc4C)n3)CC2)c1 | 6.6 | 1680 | > 1680 | > 1680 | 11.43 | 254 | – |
| Cc1cc(C#N)cc(C)c1Oc1ccnc(NC2CCN(CC(=O)Nc3ccc([N+](=O)[O-])cc3)CC2)n1 | 5.8 | 518 | > 518 | > 518 | 11.13 | 89 | 136 |
| Cc1cc(C#N)cc(C)c1Oc1ccnc(NC2CCN(CC(=O)Nc3ccc(C#N)cc3)CC2)n1 | 2.9 | 602 | > 602 | > 602 | 10.72 | 208 | – |
| Cc1cc(C#N)cc(C)c1Oc1ccnc(NC2CCN(CC(=O)Nc3cc(Cl)cc(Cl)c3)CC2)n1 | 76.1 | 3520 | > 3520 | > 3520 | 13.08 | 46 | – |
| Cc1cc(C#N)cc(C)c1Oc1ccnc(NC2CCN(CC(=O)Nc3ccc(C#N)cc3F)CC2)n1 | 8 | 1960 | > 1960 | > 1960 | 11.27 | 245 | 174 |
| Cc1cc(C#N)cc(C)c1Oc1ccnc(NC2CCN(CC(=O)Nc3cccc([N+](=O)[O-])c3)CC2)n1 | 7.8 | ≥ 379 | > 379 | > 379 | 11.49 | ≥ 49 | 156 |
| Cc1cc(S(N)(=O)=O)ccc1NC(=O)CN1CCC(Nc2nccc(Oc3c(C)cc(C#N)cc3C)n2)CC1 | 5.3 | 1640 | > 1640 | > 1640 | 9.61 | 309 | 166 |
| Cc1cc(C#N)cc(C)c1Oc1ccnc(NC2CCN(CC(=O)Nc3c(Cl)cc(Cl)cc3Cl)CC2)n1 | ≥ 304 | 1500 | > 1500 | > 1500 | 11.85 | ≤ 5 | – |
| COc1ccc(NC(=O)CN2CCC(Nc3nccc(Oc4c(C)cc(C#N)cc4C)n3)CC2)cc1 | 3.5 | 1560 | > 1560 | > 1560 | 10.82 | 446 | – |
| Cc1ccccc1NC(=O)CN1CCC(Nc2nccc(Oc3c(C)cc(C#N)cc3C)n2)CC1 | 61.6 | 1250 | > 1250 | > 1250 | 11.33 | 20 | – |
| Cc1cc(C#N)cc(C)c1Oc1nc(Nc2ccc(C#N)cc2)nc(N)c1Br [ETRAVIRINE] | – | > 4600 | – | 25.3 | – | > 1120 | – |
